In patent publication US9163032B2, “Esters of DCPLA and methods of treatment using the same” (Blanchette Rockefeller Neurosciences Institute, priority 2011, dated 2015):

Assays:
[1] = test system: Phosphatidylserine (C2) Binding Site; experiment: 3H-DCPLA-ME binding to rat brain slices with C1 and C2 competitors (film-autoradiography)
Protocol: To determine the binding site of DCPLA-ME, ^3H-DCPLA-ME was incubated with rat brain slices in the absence and presence of known C1 and C2 competitors. More specifically, rat brain sections were fixed with formaldehyde, sliced, and incubated with (1)^3H-DCPLA-ME alone; (2)^3H-DCPLA-ME with DCPLA; (3)^3H-DCPLA-ME with Phorbol ester; or (4)^3H-DCPLA-ME and Bryostatin 1. After incubation, the slices were washed with a buffer made of 130 mM NaCl, 5 mM MgCl, 5 mM KCl, 1 mM EGTA, and 0.1% bovine serum albumin in 10 mM HEPES-NaOH, pH 7.4, dried, and analyzed with film-autoradiography.

[2] = test system: primary human cortical neurons; experiment: 40 day culture of human primary cortical neurons: survival, synapses, branching; assay type: cell-based; conditions: 100 nM
Protocol: To examine the effects of PKC-ε activation, cultured human cortical neurons in serum-free artificial medium were exposed to 100 nM DCPLA-ME added every three days, along with 50% medium replacement, for 40 days. More specifically, human primary cortical neurons were grown in Neuronal Medium (ScienCell Cat No#1521) containing neuronal growth supplement (NGS) (Sciencell Cat No#1562).
Cells were plated on poly-l-lysine (0.001%) coated plates at a density of >10000 cells/cm2. Half of the media was replaced by new media every 3 days. DCPLA-ME was dissolved in 100% ethanol and added at 100 nM final concentration. Fresh DCPLA-ME (100 nM) was added every 3 days during media change. The experiments were continued for 40 days.
Human primary neurons (ScienCell Research Laboratories, USA) were thawed and plated on poly-L-lysine coated plates at a density of 10,000 cells per cm^2 and were maintained in neuronal medium (DMEM+high glucose+neuronal growth supplement, ScienCell Research Laboratories, USA) following the recommended method. Primary human neurons were then treated with either DCPLA-ME (100 nM) or bryostatin 1 (0.27 nM) for 40 days. Fresh drug was added every third day with 50% media change.

[3] = test system: rat hippocampal neurons; experiment: Dendritic branching in seven day old rat hippocampal neurons (confocal microscopy); assay type: cell-based; conditions: 100 nM, 48 hr
Protocol: The effect of DCPLA-ME on development of primary neurons was investigated. Seven day old rat hippocampal neurons were treated with DCPLA-ME (100 nM) for 48 hr. Immunofluorescence and confocal microscopy-cells were grown in four chambered slides (Nunc, USA) at low density. For immunofluorescence staining the cells were washed with PBS (pH 7.4) and fixed with 4% paraformaldehyde for 4 min. Following fixation, cells were blocked and permeabilized with 5% serum and 0.3% Triton X-100 in 1×PBS for 30 min. Cells were washed 3× with 1×PBS and incubated with primary antibodies for 1 hr at 1:100 dilution. After the incubation slides were again washed 3× in 1×PBS and were incubated with the FITC anti-rabbit IgG and Rhodamine anti-mouse IgG for 1 hr at 1:400 dilution. Cells were further washed and mounted in Pro Long Gold antifade mounting solution (Invitrogen, USA). Stained cells were viewed under the LSM 710 Meta confocal microscope (Zeiss) at 350 nm, 490 nm and 540 nm excitation and 470 nm, 525 nm and 625 nm emission for DAPI, FITC and rhodamine respectively. Six individual fields at 20× or 63× oil lens magnification were analyzed for the mean fluorescence intensity (MFI) in each channel. The colocalization correlation was generated by the ZEN software (Zeiss).

## CCCCCC1CC1CC1CC1CCCCCCCC(=O)OC (stereo not drawn) [DCPLA-ME, DCPLA methyl ester]
[1]
  binding site: phosphatidylserine (C2) site
[1]; 30 nM competitor, rat brain slices
  3H-DCPLA-ME binding, 30 nM competitor: 64%
[1]; 1 μM competitor, rat brain slices
  3H-DCPLA-ME binding, 1 μM competitor: 37%
[2]; 30 day old neurons
  number of synapses: significantly increased
[2]; 40 days, compared to control or bryostatin 1-treated cells
  Expression levels of PKCε, PSD-95 and synaptophysin: significantly higher
[3]
  Synaptophysin staining: increased
